Assay results taken from US5389663A, “1-(1h-1,2,4-triazole-yl)-2-propanol compounds” (Takeda Chemical Industries, Ltd., priority 1991, dated 1995).

Key:
[1] = tested on: Candida albicans IFO 0583; test: Paper disc agar diffusion, growth inhibition zone, Candida albicans IFO 0583; format: cell-based; conditions: 48 h, pH 7, Table 4; medium A (yeast nitrogen base agar, pH 7.0), 28° C., two days, 1000 μ/ml in methanol, 8 mm disc; read-out: Diameter of growth inhibition zone
Summary of the method: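 An 8 mm filter-paper disc soaked in a […] methanol solution of compound was laid on yeast nitrogen base agar (pH 7.0) seeded with fungus. Plates were incubated for two days at 28 °C, and the diameter of the growth inhibition zone was measured.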

Candida utilis IFO 0619 = test: Paper disc agar diffusion, growth inhibition zone, Candida utilis IFO 0619; format: cell-based; conditions: Williopsis jadinii, IFO0619, 48 h; Table 4; medium A, 28° C., two days, 1000 μ/ml, 8 mm disc; read-out: Diameter of growth inhibition zone
Description: (§1) Evaluation of the antifungal activities of the compound of formula (I) was conducted by the following method: a sheet of filter paper disc (manufactured by Toyo Seisakusho, 8 mm in diameter) soaked in a […] solution of a compound of formula (I) in methanol was placed on an agar plate containing various fungi, which was incubated at 28° C. for two days, and the diameter of the growth inhibition zone around the filter paper disc was measured. The following culture media were used: A: yeast nitrogen base agar medium (pH 7.0) B: Sabouraud agar medium

[2] = tested on: Aspergillus niger IFO 4066; test: Paper disc agar diffusion, growth inhibition zone, Aspergillus niger IFO 4066; format: cell-based; conditions: IFO4066, 48 h, Table 4, medium A, 28° C., two days, 1000 μ/ml, 8 mm disc, read-out: Diameter of growth inhibition zone
Description: as §1

[3] = tested on: Aspergillus fumigatus IFO 6344; test: Paper disc agar diffusion, growth inhibition zone, Aspergillus fumigatus IFO 6344; format: cell-based; conditions: IFO6344, 48 h, Table 4, medium A, 28° C., two days, 1000 μ/ml, 8 mm disc, read-out: Diameter of growth inhibition zone
Description: as §1

[4] = tested on: Cryptococcus neoformans IFO 0410; test: Paper disc agar diffusion, growth inhibition zone, Cryptococcus neoformans IFO 0410; format: cell-based; conditions: IFO0410, 48 h, Table 4, medium A, 28° C., two days, 1000 μ/ml, 8 mm disc, read-out: Diameter of growth inhibition zone
Description: as §1

[5] = tested on: Trichophyton rubrum IFO 6467; test: Paper disc agar diffusion, growth inhibition zone, Trichophyton rubrum IFO 6467; format: cell-based; conditions: IFO6467, 48 h, Table 4, medium B (Sabouraud agar), 28° C., two days, 1000 μ/ml, 8 mm disc, read-out: Diameter of growth inhibition zone
Description: as §1

[6] = tested on: Trichophyton mentagrophytes IFO 7522; test: Paper disc agar diffusion, growth inhibition zone, Trichophyton mentagrophytes IFO 7522; format: cell-based; conditions: IFO7522, 48 h, Table 4, medium B (Sabouraud agar), 28° C., two days, 1000 μ/ml, 8 mm disc, read-out: Diameter of growth inhibition zone
Description: as §1

[7] = tested on: Microsporum gypseum IFO 6075; test: Paper disc agar diffusion, growth inhibition zone, Microsporum gypseum IFO 6075; format: cell-based; conditions: Nannizzia gypsea, IFO6075, 48 h; Table 4; medium B (Sabouraud agar), 28° C., two days, 1000 μ/ml, 8 mm disc; read-out: Diameter of growth inhibition zone
Description: as §1

Candida albicans = test: Protective effect against Candida albicans infection in mice; format: in vivo, Crj:CDF1 mice; conditions: 168 h, minimum lethal dose of Candida albicans iv, drug once immediately after infection, survival 7 days after infection
Source text: Test Method: Five-week old Crj:CDF1 mice were inoculated with the minimum lethal dose of Candida albicans intravenously. The test drug was given once immediately after infection. The effectiveness of the drug was expressed in ED50 values calculated by the Reed and Muench method from the survival rate 7 days after infection.

| Compound | zone of inhibition at 1000 µg/mL [1] [mm] | zone of inhibition at 1000 µg/mL (Candida utilis IFO 0619) [mm] | zone of inhibition at 1000 µg/mL [2] [mm] | zone of inhibition at 1000 µg/mL [3] [mm] | zone of inhibition at 1000 µg/mL [4] [mm] | zone of inhibition at 1000 µg/mL [5] [mm] | zone of inhibition at 1000 µg/mL [6] [mm] | zone of inhibition at 1000 µg/mL [7] [mm] | ED50 (Candida albicans; po) [mg/kg] | ED50 (Candida albicans; sc) [mg/kg] |
| --- | --- | --- | --- | --- | --- | --- | --- | --- | --- | --- |
| C[C@H]([C@](O)(Cn1cncn1)c1ccc(F)cc1F)S(=O)(=O)N(C)C [Compound 2, N,N-dimethyl-[(2R,3R)-3-(2,4-difluorophenyl)-3-hydroxy-4-(1H-1,2,4-triazol-1-yl) -2-butane]sulfonamide] | 25 | 36 | 25 | 25 | 38 | 35 | 25 | 22 | 5 | 5 |
| C[C@@H](SNc1ccc(Br)cc1)[C@](O)(Cn1cncn1)c1ccc(F)cc1F [Compound 21, N-(4-bromophenyl)-[(2R,3R)-3-(2,4-difluorophenyl)-3-hydroxy-4-(1H-1,2,4-triazol-1-yl)-2butane]sulfenamide] | 43 | 40 | 20 | 30 | 30 | 45 | 25 | 24 |  |  |
| C[C@H]([C@](O)(Cn1cncn1)c1ccc(F)cc1F)S(=O)(=O)N1CCN(c2ccccc2)CC1 [Compound 23] | 45 | 45 | 20 | 22 | 40 | 40 | 25 | 30 | 7.1 |  |
